According to patent US7062219B2, “Protein fragment complementation assays for high-throughput and high-content screening” (Odyssey Thera Inc., priority 1997, dated 2006):
Entries after “also recorded” stand apart in the source; their conditions may differ. Non-standard residues stand in square brackets, D forms with d. Residues, ends and D or L forms follow the SMILES beside them. Nle = CCCC[C@H](N)C(=O)O

Key:
[1] = test system: NFkB (p65/p50) complex; experiment: transient high-content YFP PCA for NFkB (p65/p50) nuclear translocation in CHO cells; format: cell-based; conditions: 40 micrograms/ml ALLN 1 hour prior to and during TNF
Description: Fusion genes were subcloned into pCDNA3.1 expression vectors (Invitrogen) with a Zeocin selectable marker for YFP[1]-p50, and a hygromycin marker for YFP[2]-p65. A linker consisting of (GGGGS)2 (SEQ ID No.1) separated the genes of interest and the YFP fragments. CHO DUKXB11 cells were seeded into 96 well plates at a density of 8×10e3 cells/well and transfected 24 hours later with YFP[1] and YFP[2] fusion genes at a 1:1 molar ratio using Fugene (Boehringer Mannheim) according to manufacturer's directions. A total of 20 ng DNA per well was used for each sample. Thirty-six hours post-transfection, cells were serum starved by incubation in 0.25% FBS-supplemented aMEM for an additional 16–18 hours. For cytokine induction, certain cells were treated with 25 ng/ml mTNF (Boehringer Mannheim) for 30 min. To examine the effect of proteasome inhibition on NFkB nuclear translocation, the serum-starved cells were treated with 40 micrograms/ml ALLN (Calbiochem) for 1 hour prior to and during the mTNF alpha induction period. The cells were rinsed with PBS and the subcellular location of NFkB complexes was visualized and images acquired using a Nikon Eclipse TE2000 fluorescence microscope at excitation and emission wavelengths of 485 nm and 527 nm, respectively. Quantitative analysis of fluorescence intensities was performed using Metamorph software (Universal Imaging, Molecular Devices, Inc.)

[2] = test system: p65/p50 complex; experiment: DHFR PCA for NFkB (p65/p50) translocation in CHO DUKXB11 cells; format: cell-based, mouse and human; conditions: 40 micrograms/ml ALLN
Description: Coding regions of NFkB subunits p65 and p50 (corresponding to N-terminal 436 amino acids) were PCR amplified from mouse and human cDNAs, respectively, and ligated in-frame downstream of a 15 amino acid flexible linker (GGGGS)3 (SEQ ID No.30) followed by DHFR fragment F[1,2] or F[3] in pCDNA3.1zeo (Invitrogen). IkBa was subcloned separately into pCDNA3.1. For transient expression of these genes, 8×10e4 DHFR-deficient CHO DXB11 cells were seeded into 12 well plates and transfected 24 hours later with [F1,2]-p65, [F3]-p50, and IkBa at the molar ratio of 1:1:1 for each fusion construct using Fugene (Boehringer Mannheim) according to manufacturer's instructions. For controls, where indicated, empty pCDNA3.1 was used in place of IkBa. A total of 1 microgram of DNA was used per well.
Forty-eight hours post-transfection, complexes of F[1,2]-p65 and [F3]-p50 were detected by fluorescence microscopy. […]
To examine the effect of proteasome inhibition on NFkB nuclear translocation, the transiently transfected cells expressing the DHFR PCA were treated with 40 micrograms/ml ALLN (Calbiochem) for 1 hr prior to TxR-MTX labeling and for the subsequent duration of the experiment. The cells were rinsed with PBS and the subcellular location of NFkB complexes were visualized using a Nikon Eclipse TE2000 fluorescence microscope at excitation and emission wavelengths of 580 nm and 625 nm, respectively. […]

[3] = test system: IkBa/Ubiquitin complexes; experiment: IkBa/ubiquitin YFP PCA in HEK293T cells; format: cell-based; conditions: TNF induced HEK293T cells, ALLN versus vehicle
Description: IkBa-YFP[1] and YFP[2]-ubiquitin were constructed as described above and transiently expressed in HEK293T cells. […] The present invention can be applied to the large-scale identification of proteins modified by ubiquitin and ubiquitin-like polypeptides; for example, using library screening as in Example 2 of the present invention where the ‘bait’ is ubiquitin or a ubiquitin-like molecule, or by using interaction mapping as in Example 4 where ubiquitin or a ubiquitin-like molecule is tested against individual cDNAs to identify ubiquitin-protein complexes. In addition, by constructing ubiquitin PCAs for specific protein targets, the assays that are the subject of the present invention can immediately be applied to high-throughput screening for novel therapeutic agents.

With `CCCC[C@@H](C=O)NC(=O)[C@H](CC(C)C)NC(=O)[C@H](CC(C)C)NC(C)=O` [ALLN] (Ac-Leu-Leu-[Nle]-aldehyde) the “effect on TNF-induced cytoplasmic-to-nuclear translocation of NFkB complexes” value [1] was “inhibition of the TNF response; also recorded: inhibited”, the “effect on TNF-induced cytoplasmic-to-nuclear translocation of NFkB complexes in DHFR PCA” value [2] was “inhibition of the nuclear translocation; also recorded: inhibits” and the “mean fluorescence intensity of ubiquitin-IkBa complexes” value [3] was “increases the accumulation; also recorded: significantly increased”.
